Source: patent US6461997B1, “Triazole sulfones having herbicidal activity” (Monsanto Technology LLC, priority 1999, dated 2002)

Columns and labels:
SETVI (green foxtail) = assay: Pre-plant incorporated (PPI) herbicidal activity, cool season; type: in vivo, Setaria viridis; settings: for PPI activity GR80, SETVI: pre-plant incorporated, lowest tested rate with 80% or greater inhibition, about 14 days
Experimental: (§1) In another set of tests, the pre-plant incorporated (PPI) activity of compounds of this invention was evaluated on the same species as for the pre-emergence tests described above. In the PPI tests the following procedure, designed to simulate PPI application, was used.
(§2) A pre-prepared topsoil mixture (described above) was placed in a pot and compacted to a depth of 1.0 to 1.25 cm from the top of the pot. Seeds of each of several monocotyledonous and dicotyledonous annual plant species were placed on top of the soil. A sufficient quantity of soil to cover the seeds and level fill the pot was weighed into an open container. A known amount of the test compound was dissolved or suspended in an organic solvent and applied by spraying to this cover soil. The cover soil was thoroughly mixed to distribute the test compound throughout the cover soil, and was then applied as a cover layer over the seeds. Untreated soil was used as a cover layer for control pots. After treatment the plants were placed in a greenhouse where they received 0.64 cm of overhead irrigation. All subsequent watering consisted of a light overhead mist and/or subirrigation as needed for germination and growth. Tables 9 and 10 below relate to warm season plant species which were placed after pre-emergence treatment in a greenhouse with a 30/21° C. day/night temperature regime. Tables 11 and 12 below relates to cool season plant species placed after pre-emergence treatment in a greenhouse or growth chamber with an 18/13° C. day/night temperature regime. Only the compounds of Examples 1, 6, 8, 11, 13 and 15-20 were included in PPI tests.
(§3) Approximately 14 days after planting and treating, the plants were observed and herbicidal efficacy recorded as percent inhibition by comparison with untreated plants.

[1] = system: PANMI (wild proso millet); assay: Pre-plant incorporated (PPI) herbicidal activity, warm season; type: in vivo, Panicum miliaceum; settings: for inhibition at 10 g/ha / inhibition at 30 g/ha / inhibition at 100 g/ha / inhibition at 300 g/ha / inhibition at 900 g/ha: Panicum miliaceum, read-out: Percent inhibition PANMI; for inhibition at 10 g/ha / inhibition at 30 g/ha / inhibition at 100 g/ha / inhibition at 300 g/ha / inhibition at 900 g/ha / Percent inhibition PANMI: PPI application; for PPI activity GR80, PANMI: pre-plant incorporated, lowest tested rate with 80% or greater inhibition, about 14 days
Experimental: as §1, §2, §3

[2] = system: AGRRE (quackgrass (seedling)); assay: Post-emergence herbicidal activity, cool season; type: in vivo, Elymus repens; settings: abraded plants sprayed at 300, 100, 30 and 10 g/ha; about 14 days after treatment
Experimental: In another set of tests, the post-emergence activity of compounds of this invention was evaluated on the cool season species listed above. The following procedure was used.
A pre-prepared topsoil mixture (described above) was placed in a pot and compacted to a depth of 1.0 to 1.25 cm from the top of the pot. Seeds of each of several monocotyledonous and dicotyledonous annual plant species were placed on top of the soil. The seeds were covered with a mixture of 50% topsoil and 50% Rediearth™ in sufficient quantity to level-fill the pots. The pots were then placed on a greenhouse bench and subirrigated as needed.
When plants growing from the seeds had emerged and reached a suitable growth stage for post-emergence treatment, typically 9 to 14 days after planting, above-ground parts of the plants were subjected to a pre-treatment involving abrasion to create greater opportunity for foliar uptake of subsequently applied compounds. Abrasion was performed using garnet 200w particles applied with a Sears Craftsman hand-held sandblaster operated at approximately 850 kPa (50 psig) pressure.
A known amount of each test compound dissolved or suspended in an appropriate organic solvent was diluted with a 50:50 mix of acetone and water and applied to the plants by spraying with a standard spray nozzle in a spray volume of […] at a spray pressure of 511 kPa (30 psig). Only the compounds of Examples 1, 8-15 and 17-22 were included in post-emergence tests. Application rates for these compounds were 300, 100, 30 and 10 g/ha. Control plants were abraded but not sprayed.
After treatment the plants were placed in a greenhouse with an 18/13° C. day/night temperature regime and were subsequently watered as needed for growth. Approximately 14 days after treatment, the plants were observed and herbicidal efficacy recorded as percent inhibition by comparison with control plants. GR80 values were assigned for each compound as described above for the pre-emergence tests.

wheat (TRZAW) = assay: Selectivity test, PPI, cool season crop; type: in vivo, Triticum aestivum; settings: PPI application
Experimental: as §2, §3
Additional pre-emergence and PPI tests were conducted by the procedures described above, on warm and cool season weed species in the presence of crop species, to assess herbicidal selectivity. Crop species included in warm season tests were corn (Zea mays, ZEAMX), rice (Oryza sativa, ORYSA) and soybean (Glycine max, GLYMX). Crop species included in cool season tests were wheat (Triticum aestivum, TRZAW), barley (Hordeunm vulgare, HORVX) and oilseed rape (Brassica napus, BRSNS).
Tables 15 and 16 relate to pre-emergence and PPI tests respectively on warm season species. Table 17 relates to pre-emergence tests on cool season species.

AMARE (redroot pigweed) = assay: Pre-plant incorporated (PPI) herbicidal activity, warm season; type: in vivo, Amaranthus retroflexus; settings: for inhibition at 10 g/ha / inhibition at 30 g/ha / inhibition at 100 g/ha / inhibition at 300 g/ha / inhibition at 900 g/ha: Amaranthus retroflexus, read-out: Percent inhibition AMARE; for inhibition at 10 g/ha / inhibition at 30 g/ha / inhibition at 100 g/ha / inhibition at 300 g/ha / inhibition at 900 g/ha / Percent inhibition AMARE: PPI application; for PPI activity (GR80) AMARE: pre-plant incorporated, GR80 = lowest tested rate with 80% or greater inhibition, approx. 14 days after treating, 30/21° C.
Experimental: as §1, §2, §3

[3] = Setaria viridis, weed, PPI application, 30 g/ha, read-out: Percent inhibition SETVI
[4] = Setaria viridis, weed, PPI application, 100 g/ha, read-out: Percent inhibition SETVI
[5] = Setaria viridis, weed, PPI application, 300 g/ha, read-out: Percent inhibition SETVI
[6] = Setaria viridis, weed, PPI application, 900 g/ha, read-out: Percent inhibition SETVI
[7] = Triticum aestivum, 30 g/ha, read-out: Percent inhibition TRZAW
[8] = Triticum aestivum, 100 g/ha, read-out: Percent inhibition TRZAW
[9] = Triticum aestivum, 300 g/ha, read-out: Percent inhibition TRZAW
[10] = Triticum aestivum, 900 g/ha, read-out: Percent inhibition TRZAW

Structure (SMILES)	inhibition at 30 g/ha (SETVI (green foxtail); [3])	inhibition at 100 g/ha (SETVI (green foxtail); [4])	inhibition at 300 g/ha (SETVI (green foxtail); [5])	inhibition at 900 g/ha (SETVI (green foxtail); [6])	PPI activity GR80, SETVI (SETVI (green foxtail))	inhibition at 10 g/ha [1]	inhibition at 30 g/ha ([1]; 30 g/ha)	inhibition at 100 g/ha ([1]; 100 g/ha)	inhibition at 300 g/ha ([1]; 300 g/ha)	inhibition at 900 g/ha [1]	PPI activity GR80, PANMI [1]	Post-emergence activity GR80, AGRRE [2]	inhibition at 30 g/ha (wheat (TRZAW); [7])	inhibition at 100 g/ha (wheat (TRZAW); [8])	inhibition at 300 g/ha (wheat (TRZAW); [9])	inhibition at 900 g/ha (wheat (TRZAW); [10])	inhibition at 10 g/ha (AMARE (redroot pigweed))	inhibition at 30 g/ha (AMARE (redroot pigweed); 30 g/ha)	inhibition at 100 g/ha (AMARE (redroot pigweed); 100 g/ha)	inhibition at 300 g/ha (AMARE (redroot pigweed); 300 g/ha)	further results
CCN(CC)C(=O)n1cnc(S(=O)(=O)C(F)(F)Br)n1 [Example 1, 3-(bromodifluoromethylsulfonyl)-1-(N,N-diethylcarbamoyl)-1,2,4-triazole]	80%	99%	100%	100%	100 g/ha	0%	60%	99%	100%	100%	30 g/ha	[empty]	0%	0%	10%	30%	0%	60%	80%	100%	inhibition at 900 g/ha (AMARE (redroot pigweed); 900 g/ha): 100%; PPI activity (GR80) AMARE (AMARE (redroot pigweed)): 30 g/ha
CCN(CC)C(=O)n1cnc(S(=O)(=O)C(F)(F)C(F)(F)SC)n1 [Example 14]	–	–	–	–	–	–	–	–	–	–	–	[empty]	–	–	–	–	–	–	–	–	–
CCN(CC)C(=O)n1cnc(S(=O)(=O)C(F)(F)F)n1 [Example 2]	–	–	–	–	–	–	–	–	–	–	–	–	–	–	–	–	–	–	–	–	Percent inhibition SETVI (SETVI (green foxtail); weed, PPI application, 30 g/ha): 80%; Percent inhibition SETVI (SETVI (green foxtail); weed, PPI application, 100 g/ha): 100%; Percent inhibition SETVI (SETVI (green foxtail); weed, PPI application, 300 g/ha): 100%; Percent inhibition SETVI (SETVI (green foxtail); weed, PPI application, 900 g/ha): 100%; Percent inhibition PANMI ([1]; 30 g/ha): 20%; Percent inhibition PANMI ([1]; 100 g/ha): 80%; Percent inhibition PANMI ([1]; 300 g/ha): 100%; Percent inhibition TRZAW (wheat (TRZAW); 30 g/ha): 0%; Percent inhibition TRZAW (wheat (TRZAW); 100 g/ha): 0%; Percent inhibition TRZAW (wheat (TRZAW); 300 g/ha): 30%; Percent inhibition TRZAW (wheat (TRZAW); 900 g/ha): 30%; Percent inhibition AMARE (AMARE (redroot pigweed); 30 g/ha): 100%; Percent inhibition AMARE (AMARE (redroot pigweed); 100 g/ha): 95%; Percent inhibition AMARE (AMARE (redroot pigweed); 300 g/ha): 100%; Percent inhibition AMARE (AMARE (redroot pigweed); 900 g/ha): 100%
C=C(C)CC(F)(F)S(=O)(=O)c1ncn(C(=O)N(CC)CC)n1 [Example 18]	100%	100%	60%	100%	30 g/ha	0%	40%	100%	100%	100%	100 g/ha	[empty]	0%	0%	30%	60%	30%	100%	100%	100%	inhibition at 10 g/ha (SETVI (green foxtail); Setaria viridis, weed, PPI application, 10 g/ha, read-out: Percent inhibition SETVI): 100%; inhibition at 10 g/ha (wheat (TRZAW); Triticum aestivum, 10 g/ha, read-out: Percent inhibition TRZAW): 0%; inhibition at 900 g/ha (AMARE (redroot pigweed); 900 g/ha): 100%; PPI activity (GR80) AMARE (AMARE (redroot pigweed)): 300 g/ha
